Experimental findings from patent publication US11530244B2, “Cyclic polypeptides for PCSK9 inhibition” (priority 2018, dated 2022) are described below.

The assay addresses PCSK9 (Homo sapiens (Human), UniProt Q8NBP7). The experiment in a line: PCSK9 Alexa FRET Standard assay (displacement of AlexaFluor647 tagged cyclic peptide Reagent A). It is filed as binding. The settings on record: PCSK9 Alexa FRET Standard assay, 0.5 nM PCSK9, 20 nM AF cyclic peptide Reagent A; read-out: IC50. In short, it runs like this:
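TR-FRET displacement: 0.5 nM biotinylated PCSK9 with 1.25 nM Strep-Eu and 20 nM AlexaFluor-tagged cyclic peptide (final) in 50 mM HEPES pH 7.4, 0.15 M NaCl, 5 mM CaCl2, 0.01% BSA, 0.01% P20, ≥2 h at room temperature. IC50 from sigmoidal fit, converted to Ki via peptide KD; falling Eu counts flagged false positives.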

Starred links: 1 amine or outer side, 2 acyl side, 3 side chain; linkers in the order of their positions; H or OH if unused. Positions of bridges follow the written chain, without caps; N, C: chain ends. Non-standard residues stand in square brackets, D forms with d. Residues, ends and D or L forms follow the SMILES beside them. NHCH2C6H4(p)CH2CH2NH = c1cc(CN[*:1])ccc1CCN[*:2]; X61 = O=C(CCCCC(=O)[*:1])NCc1ccc(CC(=O)[*:2])cc1; Ala(imidazol-2-yl) = N[C@@H](Cc1ncc[nH]1)C(=O)O; Trp(5-OH) = N[C@@H](Cc1c[nH]c2ccc(O)cc12)C(=O)O; Phe(4-COOH) = N[C@@H](Cc1ccc(C(=O)O)cc1)C(=O)O; Trp(5-F) = N[C@@H](Cc1c[nH]c2ccc(F)cc12)C(=O)O; Trp(6-F) = N[C@@H](Cc1c[nH]c2cc(F)ccc12)C(=O)O; Phac(3-amino) = O=C(Cc1cccc(N[*:1])c1)[*:2]; Phe(4-CH2NH2) = NCc1ccc(C[C@H](N)C(=O)O)cc1; Nle(6-COOH) = N[C@@H](CCCCC(=O)O)C(=O)O; X4 = O=C(CCSCc1cccc(CSCCN[*:1])c1)[*:2]; mXylylene = c1cc(C[*:1])cc(C[*:2])c1; AEF = NCCOc1ccc(C[C@H](N)C(=O)O)cc1; Adipoyl = O=C(CCCCC(=O)[*:2])[*:1]; X34 = O=C(CCC1CCN([*:1])CC1)[*:2]; Asu = N[C@@H](CCCCCC(=O)O)C(=O)O; αMeP = C[C@@]1(C(=O)O)CCCN1; dOrn = NCCC[C@@H](N)C(=O)O; Dab = NCC[C@H](N)C(=O)O; Dap = NC[C@H](N)C(=O)O; X2 = O=C(C[*:2])[*:1]; Ahx = NCCCCCC(=O)O; AEA = NCCOCC(=O)O; Mpa = O=C(O)CCS

Sequence of PCSK9 (Q8NBP7 153-692): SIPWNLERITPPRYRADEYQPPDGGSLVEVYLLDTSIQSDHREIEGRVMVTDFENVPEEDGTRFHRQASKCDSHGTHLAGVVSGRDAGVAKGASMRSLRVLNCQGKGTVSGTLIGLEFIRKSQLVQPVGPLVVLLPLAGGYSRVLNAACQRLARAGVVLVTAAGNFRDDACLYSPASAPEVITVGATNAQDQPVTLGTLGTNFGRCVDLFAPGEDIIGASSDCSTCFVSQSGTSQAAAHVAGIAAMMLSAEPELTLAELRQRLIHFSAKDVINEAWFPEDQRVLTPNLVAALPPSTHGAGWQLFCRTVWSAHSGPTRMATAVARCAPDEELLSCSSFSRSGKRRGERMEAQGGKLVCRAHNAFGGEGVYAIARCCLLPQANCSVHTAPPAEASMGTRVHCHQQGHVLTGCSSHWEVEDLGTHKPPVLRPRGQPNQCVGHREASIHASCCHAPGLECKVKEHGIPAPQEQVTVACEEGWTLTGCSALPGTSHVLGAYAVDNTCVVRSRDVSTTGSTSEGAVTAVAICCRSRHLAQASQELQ

Take `COc1ccc(C[C@@H]2NC(=O)[C@H](Cc3cnc[nH]3)NC(=O)[C@H](CC(=O)O)NC(=O)[C@H](Cc3c[nH]c4ccc(F)cc34)NC(=O)[C@H](Cc3c[nH]c4ccc(F)cc34)NC(=O)[C@@H](C)NC(=O)[C@H](CCCCN)NC(=O)[C@@H](NC(C)=O)CC(=O)NCc3ccc(cc3)C[C@@H](C(N)=O)NC(=O)[C@]3(C)CCCN3C2=O)cc1` [Compound 348] (Ac-DK[dA][Trp(5-F)][Trp(5-F)]DHY(Me)[αMeP][Phe(4-CH2NH2)]-NH2; lactam 1-10): the IC50 was 21 to 50 µM.

Consider `COc1ccc(C[C@@H]2NC(=O)[C@H](Cc3cnc[nH]3)NC(=O)[C@H](CC(=O)O)NC(=O)[C@H](Cc3c[nH]c4cc(F)ccc34)NC(=O)[C@H](Cc3c[nH]c4ccc(F)cc34)NC(=O)[C@@H](C)NC(=O)CCCCCNC(=O)c3ccc(cc3)C[C@@H](C(N)=O)NC(=O)[C@]3(C)CCCN3C2=O)cc1` [Compound 350] ([Ahx][dA][Trp(5-F)][Trp(6-F)]DHY(Me)[αMeP][Phe(4-COOH)]-NH2; lactam N-9), for which the IC50 fell in the range of 21 to 50 µM.

Take `CC(=O)N[C@H]1CNC(=O)COc2ccc(cc2)C[C@@H](C(N)=O)NC(=O)[C@]2(C)CCCN2C(=O)[C@H](Cc2ccc(O)cc2)NC(=O)[C@H](Cc2cnc[nH]2)NC(=O)[C@H](CC(=O)O)NC(=O)[C@H](Cc2c[nH]c3ccc(F)cc23)NC(=O)[C@H](Cc2c[nH]c3ccc(F)cc23)NC(=O)CNC(=O)[C@H](C)NC1=O` [Compound 351] (Ac-[Dap]AG[Trp(5-F)][Trp(5-F)]DHY[αMeP]Y-NH2; linker 1-10 via X2): the 50% inhibitory concentration (IC50) is 21 to 50 µM.

Regarding `CC(=O)N[C@H]1CCNC(=O)COc2ccc(cc2)C[C@@H](C(N)=O)NC(=O)[C@]2(C)CCCN2C(=O)[C@H](Cc2ccc(O)cc2)NC(=O)[C@H](Cc2cnc[nH]2)NC(=O)[C@H](CC(=O)O)NC(=O)[C@H](Cc2c[nH]c3ccc(F)cc23)NC(=O)[C@H](Cc2c[nH]c3ccc(F)cc23)NC(=O)CNC(=O)[C@H](C)NC1=O` [Compound 352] (Ac-[Dab]AG[Trp(5-F)][Trp(5-F)]DHY[αMeP]Y-NH2; linker 1-10 via X2), the IC50 fell in the range of 21 to 50 µM.

As to `C[C@@]12CCCN1C(=O)[C@H](Cc1ccc(O)cc1)NC(=O)[C@H](Cc1cnc[nH]1)NC(=O)[C@H](CC(=O)O)NC(=O)[C@H](Cc1c[nH]c3ccc(F)cc13)NC(=O)[C@H](Cc1c[nH]c3ccc(F)cc13)NC(=O)CNC(=O)[C@@H](CCCN)NC(=O)CCSCc1cccc(c1)CSC[C@@H](C(N)=O)NC2=O` [Compound 356] ([Mpa][dOrn]G[Trp(5-F)][Trp(5-F)]DHY[αMeP]C-NH2; linker 1-10 via mXylylene), the IC50 fell in the range of 21 to 50 µM.

For `COc1ccc(C[C@@H]2NC(=O)[C@H](Cc3cnc[nH]3)NC(=O)[C@H](CC(=O)O)NC(=O)[C@H](Cc3c[nH]c4cc(F)ccc34)NC(=O)[C@H](Cc3c[nH]c4ccc(F)cc34)NC(=O)[C@@H](C)NC(=O)[C@H](CCCCN)NC(=O)CCc3cn(nn3)-c3ccc(cc3)C[C@@H](C(N)=O)NC(=O)[C@]3(C)CCCN3C2=O)cc1` [Compound 368], the IC50 was in the range of 21 to 50 µM.

With `CO[C@H](C)[C@@H]1NC(=O)CCSCc2cccc(c2)CSC[C@@H](C(N)=O)NC(=O)[C@]2(C)CCCN2C(=O)[C@H](Cc2ccc(O)cc2)NC(=O)[C@H](Cc2cnc[nH]2)NC(=O)[C@H](CC(=O)O)NC(=O)[C@H](Cc2c[nH]c3ccc(F)cc23)NC(=O)[C@H](Cc2c[nH]c3ccc(F)cc23)NC(=O)CNC1=O` [Compound 375] ([Mpa]T(Me)G[Trp(5-F)][Trp(5-F)]DHY[αMeP]C-NH2; linker 1-10 via mXylylene), the IC50 was 21 to 50 µM.

Turning to `COc1ccc(C[C@@H]2NC(=O)[C@H](Cc3cnc[nH]3)NC(=O)[C@H](CC(=O)O)NC(=O)[C@H](Cc3c[nH]c4ccc(F)cc34)NC(=O)[C@H](Cc3c[nH]c4ccc(F)cc34)NC(=O)[C@@H](C)NC(=O)CCC3CCN(CC3)C(=O)c3ccc(cc3)C[C@@H](C(N)=O)NC(=O)[C@]3(C)CCCN3C2=O)cc1` [Compound 389] ([X34][dA][Trp(5-F)][Trp(5-F)]DHY(Me)[αMeP][Phe(4-COOH)]-NH2; lactam N-9), the IC50 lay in the range of 21 to 50 µM.

As to `COc1ccc(C[C@@H]2NC(=O)[C@H](Cc3ncc[nH]3)NC(=O)[C@H](CC(=O)O)NC(=O)[C@H](Cc3c[nH]c4ccc(F)cc34)NC(=O)[C@H](Cc3c[nH]c4ccc(F)cc34)NC(=O)[C@@H](C)NC(=O)[C@H](C)NC(=O)CCSCc3cccc(c3)CSCCNC(=O)[C@]3(C)CCCN3C2=O)cc1` [Compound 407] (cyclo(A[dA][Trp(5-F)][Trp(5-F)]D[Ala(imidazol-2-yl)]Y(Me)[αMeP][X4])), the half-inhibitory concentration (IC50) was 21 to 50 µM.

On to `COc1ccc(C[C@@H]2NC(=O)[C@H](Cc3cnc[nH]3)NC(=O)[C@H](CC(=O)O)NC(=O)[C@H](Cc3c[nH]c4ccc(F)cc34)NC(=O)[C@H](Cc3c[nH]c4ccc(F)cc34)NC(=O)[C@@H](C)NC(=O)CCCCC(=O)NCCOc3ccc(cc3)C[C@@H](C(N)=O)NC(=O)[C@]3(C)CCCN3C2=O)cc1` [Compound 410] ([dA][Trp(5-F)][Trp(5-F)]DHY(Me)[αMeP][AEF]-NH2; linker N-8 via Adipoyl), for which the IC50 lay in the range of 1 to 12.1 µM.

On to `COc1ccc(C[C@@H]2NC(=O)[C@H](Cc3cnc[nH]3)NC(=O)[C@H](CC(=O)O)NC(=O)[C@H](Cc3c[nH]c4ccc(F)cc34)NC(=O)[C@H](Cc3c[nH]c4ccc(F)cc34)NC(=O)[C@@H](C)NC(=O)[C@H](CCCCN)NC(=O)[C@@H](NC(C)=O)CC(=O)NCc3ccc(cc3)CCNC(=O)[C@]3(C)CCCN3C2=O)cc1` [Compound 411] (Ac-DK[dA][Trp(5-F)][Trp(5-F)]DHY(Me)[αMeP]; linker 1-C via NHCH2C6H4(p)CH2CH2NH), for which the IC50 was in the range of 1 to 12.1 µM.

Regarding `COc1ccc(C[C@@H]2NC(=O)[C@H](Cc3cnc[nH]3)NC(=O)[C@H](CC(=O)O)NC(=O)[C@H](Cc3c[nH]c4ccc(F)cc34)NC(=O)[C@H](Cc3c[nH]c4ccc(F)cc34)NC(=O)[C@@H](C)NC(=O)CCCCC(=O)NCc3ccc(cc3)CC(=O)NC[C@@H](C(N)=O)NC(=O)[C@]3(C)CCCN3C2=O)cc1` [Compound 412] ([dA][Trp(5-F)][Trp(5-F)]DHY(Me)[αMeP][Dap]-NH2; linker N-8 via X61), the IC50 lay within 1 to 12.1 µM.

In the case of `COc1ccc(C[C@@H]2NC(=O)[C@H](Cc3cnc[nH]3)NC(=O)[C@H](CC(=O)O)NC(=O)[C@H](Cc3c[nH]c4ccc(F)cc34)NC(=O)[C@H](Cc3c[nH]c4ccc(F)cc34)NC(=O)[C@@H](C)NC(=O)Cc3cccc(c3)NC(=O)C[C@@H](C(=O)O)NC(=O)[C@]3(C)CCCN3C2=O)cc1` [Compound 413] ([Phac(3-amino)][dA][Trp(5-F)][Trp(5-F)]DHY(Me)[αMeP]D-OH; lactam N-9), the IC50 lay in the range of 21 to 50 µM.

As to `C[C@@]12CCCN1C(=O)[C@H](Cc1ccc(O)cc1)NC(=O)[C@H](Cc1cnc[nH]1)NC(=O)[C@H](CC(=O)O)NC(=O)[C@H](Cc1c[nH]c3ccc(F)cc13)NC(=O)[C@H](Cc1c[nH]c3ccc(O)cc13)NC(=O)CNC(=O)[C@H](CCCCN)NC(=O)CCSCc1cccc(c1)CSC[C@@H](C(N)=O)NC2=O` [Compound 414] ([Mpa]KG[Trp(5-OH)][Trp(5-F)]DHY[αMeP]C-NH2; linker 1-10 via mXylylene), the half-inhibitory concentration (IC50) is 0.1 to 1 µM.

Regarding `C[C@@]12CCCN1C(=O)[C@H](Cc1ccc(O)cc1)NC(=O)[C@H](Cc1cnc[nH]1)NC(=O)[C@H](CC(=O)O)NC(=O)[C@H](Cc1c[nH]c3ccc(O)cc13)NC(=O)[C@H](Cc1c[nH]c3ccc(O)cc13)NC(=O)CNC(=O)[C@H](CCCCN)NC(=O)CCSCc1cccc(c1)CSC[C@@H](C(N)=O)NC2=O` [Compound 415] ([Mpa]KG[Trp(5-OH)][Trp(5-OH)]DHY[αMeP]C-NH2; linker 1-10 via mXylylene), the IC50 fell in the range of 0.00011 to 0.1 µM.

For `CC(=O)N[C@@H]1CCCC/C=C/CO[C@H]2C[C@@H](C(N)=O)N(C2)C(=O)[C@H](Cc2ccc(O)cc2)NC(=O)[C@H](Cc2cnc[nH]2)NC(=O)[C@H](CC(=O)O)NC(=O)[C@H](Cc2c[nH]c3ccc(F)cc23)NC(=O)[C@H](Cc2c[nH]c3ccc(F)cc23)NC(=O)CCNC1=O` [Compound 418], the IC50 was 21 to 50 µM.

As to `COc1ccc(C[C@@H]2NC(=O)[C@H](Cc3cnc[nH]3)NC(=O)[C@H](CC(=O)O)NC(=O)[C@H](Cc3c[nH]c4ccc(F)cc34)NC(=O)[C@H](Cc3c[nH]c4ccc(F)cc34)NC(=O)[C@@H](C)NC(=O)[C@H](CCCCN)NC(=O)[C@@H](NC(C)=O)CCC(=O)NCc3ccc(cc3)CCNC(=O)[C@]3(C)CCCN3C2=O)cc1` [Compound 421] (Ac-EK[dA][Trp(5-F)][Trp(5-F)]DHY(Me)[αMeP]; linker 1-C via NHCH2C6H4(p)CH2CH2NH), the IC50 lay in the range of 0.1 to 1 µM.

As for `COc1ccc(C[C@@H]2NC(=O)[C@H](Cc3cnc[nH]3)NC(=O)[C@H](CC(=O)O)NC(=O)[C@H](Cc3c[nH]c4ccc(F)cc34)NC(=O)[C@H](Cc3c[nH]c4ccc(F)cc34)NC(=O)[C@@H](C)NC(=O)[C@H](CNC(=O)COCCN)NC(=O)CCSCc3cccc(c3)CSCCNC(=O)[C@]3(C)CCCN3C2=O)cc1` [Compound 424] (cyclo(DHY(Me)[αMeP][X4][Dap](AEA)[dA][Trp(5-F)][Trp(5-F)])), the half-inhibitory concentration (IC50) lay within 0.00011 to 0.1 µM.

With `COc1ccc(C[C@@H]2NC(=O)[C@H](Cc3cnc[nH]3)NC(=O)[C@H](CC(=O)O)NC(=O)[C@H](Cc3c[nH]c4ccc(F)cc34)NC(=O)[C@H](Cc3c[nH]c4ccc(F)cc34)NC(=O)[C@@H](C)NC(=O)[C@H](CCCCC(=O)O)NC(=O)CCSCc3cccc(c3)CSCCNC(=O)[C@]3(C)CCCN3C2=O)cc1` [Compound 425] (cyclo(DHY(Me)[αMeP][X4][Nle(6-COOH)][dA][Trp(5-F)][Trp(5-F)])), the IC50 is 0.00011 to 0.1 µM.

For the compound `COc1ccc(C[C@@H]2NC(=O)[C@H](Cc3cnc[nH]3)NC(=O)[C@H](CC(=O)O)NC(=O)[C@H](Cc3c[nH]c4ccc(F)cc34)NC(=O)[C@H](Cc3c[nH]c4ccc(F)cc34)NC(=O)[C@@H](C)NC(=O)[C@H](CCCCCC(=O)O)NC(=O)CCSCc3cccc(c3)CSCCNC(=O)[C@]3(C)CCCN3C2=O)cc1` [Compound 426] (cyclo([Asu][dA][Trp(5-F)][Trp(5-F)]DHY(Me)[αMeP][X4])), the IC50 was in the range of 1 to 12.1 µM.
